How the values were obtained:
Assay type in all cases: cell-based
Nav 1.7 [1] = molecular target: T1, Nav 1.7 (Homo sapiens (Human), UniProt Q15858); assay: Nav 1.7 in vitro assay, IonWorks Quattro (IWQ) population patch-clamp; conditions: HEK 293 cells stably transfected with Nav 1.7; 26th pulse to -20 mV
Protocol: (§1) Nav 1.7 and Nav 1.5 In Vitro Assays
(§2) HEK 293 cells stably transfected with either Nav 1.7 or with Nav 1.5 were recorded in population patch-clamp mode with the IonWorks® Quattro automated electrophysiology system in accordance with the manufacturer's specifications (Molecular Devices, LLC, Sunnyvale, Calif.). Sodium channel currents were measured in response to a train of depolarizations that induced successively greater inactivation.
(§3) Cells were held at −110 mV for three seconds (Nav 1.7) or half a second (Nav 1.5) from a holding voltage of −15 mV, then put through a series of 26 pulses of 150 msec duration to −20 mV at a frequency of 5 Hz. Cells were then left unclamped for a period of 3 to 8 minutes while a single concentration of test compound was added. Cells were then reclamped and put through the same voltage protocol. Current at the end of the 26th pulse to −20 mV was subtracted from the peak current evoked by the 26th pulse to −20 mV to correct for leak current. Percent block was calculated for each concentration in duplicate, and IC50 curves were fitted to percent block as a function of concentration.

Nav 1.7 [2] = molecular target: T1, Nav 1.7; assay: Nav 1.7 in vitro PX assay, PatchXpress whole cell voltage clamp; conditions: HEK 293 cells stably transfected with human Nav1.7; partially inactivated state (20 to 50% inactivation)
Method in brief: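 Partially inactivated channels (20–50% inactivation at holding potential) were probed on automated patch clamp in stably transfected HEK293 cells, stepping to −10 mV for 20 msec every 10 s (0.1 Hz).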

Nav 1.5 = Nav 1.5 (Homo sapiens (Human), UniProt Q14524); assay: Nav 1.5 in vitro assay, IonWorks Quattro (IWQ) population patch-clamp; conditions: HEK 293 cells stably transfected with Nav 1.5; 26th pulse to -20 mV
Protocol: as §1, §2, §3

Sequence of Nav 1.5 (Q14524 whole entry): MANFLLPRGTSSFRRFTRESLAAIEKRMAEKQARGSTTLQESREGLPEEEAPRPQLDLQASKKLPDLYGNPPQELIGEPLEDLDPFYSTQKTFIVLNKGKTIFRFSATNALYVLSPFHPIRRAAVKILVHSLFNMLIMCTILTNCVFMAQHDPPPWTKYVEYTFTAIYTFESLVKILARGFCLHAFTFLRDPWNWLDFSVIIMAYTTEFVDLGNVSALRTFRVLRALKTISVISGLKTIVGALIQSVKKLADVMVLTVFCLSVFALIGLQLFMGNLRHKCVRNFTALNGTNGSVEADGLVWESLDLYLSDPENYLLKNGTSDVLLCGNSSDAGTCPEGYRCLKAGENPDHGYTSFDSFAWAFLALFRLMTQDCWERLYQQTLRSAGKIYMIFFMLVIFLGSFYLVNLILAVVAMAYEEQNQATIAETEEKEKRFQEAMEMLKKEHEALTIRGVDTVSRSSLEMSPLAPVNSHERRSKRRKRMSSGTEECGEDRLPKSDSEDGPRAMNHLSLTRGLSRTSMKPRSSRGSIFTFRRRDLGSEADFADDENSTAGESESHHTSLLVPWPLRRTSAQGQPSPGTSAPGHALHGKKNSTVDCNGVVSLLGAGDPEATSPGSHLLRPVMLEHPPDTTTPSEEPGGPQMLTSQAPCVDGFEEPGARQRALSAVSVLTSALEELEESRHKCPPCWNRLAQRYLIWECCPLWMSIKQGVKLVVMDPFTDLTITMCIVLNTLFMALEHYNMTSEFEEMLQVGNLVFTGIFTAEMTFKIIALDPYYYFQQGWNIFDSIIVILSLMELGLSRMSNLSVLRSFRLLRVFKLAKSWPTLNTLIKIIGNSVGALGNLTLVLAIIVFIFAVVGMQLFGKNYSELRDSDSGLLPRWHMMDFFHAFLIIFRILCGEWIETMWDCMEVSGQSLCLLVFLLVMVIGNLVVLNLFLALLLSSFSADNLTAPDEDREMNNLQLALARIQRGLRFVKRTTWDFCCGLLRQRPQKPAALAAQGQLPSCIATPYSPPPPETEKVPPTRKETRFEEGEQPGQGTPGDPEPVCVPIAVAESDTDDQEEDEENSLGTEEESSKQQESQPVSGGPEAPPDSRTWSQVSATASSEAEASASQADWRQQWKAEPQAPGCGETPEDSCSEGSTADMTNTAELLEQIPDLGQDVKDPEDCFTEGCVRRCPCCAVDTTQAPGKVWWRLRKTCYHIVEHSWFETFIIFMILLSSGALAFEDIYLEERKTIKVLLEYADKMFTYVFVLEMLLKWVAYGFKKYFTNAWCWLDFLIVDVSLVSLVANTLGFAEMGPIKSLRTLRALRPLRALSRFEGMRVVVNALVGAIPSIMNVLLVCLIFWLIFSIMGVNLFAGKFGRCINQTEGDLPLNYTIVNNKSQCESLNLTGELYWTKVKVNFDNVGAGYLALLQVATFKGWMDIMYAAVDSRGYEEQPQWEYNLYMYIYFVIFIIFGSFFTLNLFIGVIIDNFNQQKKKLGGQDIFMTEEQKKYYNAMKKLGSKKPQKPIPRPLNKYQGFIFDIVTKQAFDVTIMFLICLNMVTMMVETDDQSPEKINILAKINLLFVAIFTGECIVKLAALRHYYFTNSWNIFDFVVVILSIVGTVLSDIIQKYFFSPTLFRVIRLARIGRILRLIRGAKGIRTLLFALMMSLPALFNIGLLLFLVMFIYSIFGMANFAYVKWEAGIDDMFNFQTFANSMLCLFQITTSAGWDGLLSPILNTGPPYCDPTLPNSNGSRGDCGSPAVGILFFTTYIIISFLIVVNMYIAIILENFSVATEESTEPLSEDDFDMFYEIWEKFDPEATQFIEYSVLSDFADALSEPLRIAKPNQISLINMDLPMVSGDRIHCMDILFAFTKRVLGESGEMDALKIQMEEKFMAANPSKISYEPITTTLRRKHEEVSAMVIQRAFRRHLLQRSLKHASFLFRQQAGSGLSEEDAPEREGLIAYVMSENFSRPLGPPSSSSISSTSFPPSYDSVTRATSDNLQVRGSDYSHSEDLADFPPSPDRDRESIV
T1 sequence (Q15858 whole entry): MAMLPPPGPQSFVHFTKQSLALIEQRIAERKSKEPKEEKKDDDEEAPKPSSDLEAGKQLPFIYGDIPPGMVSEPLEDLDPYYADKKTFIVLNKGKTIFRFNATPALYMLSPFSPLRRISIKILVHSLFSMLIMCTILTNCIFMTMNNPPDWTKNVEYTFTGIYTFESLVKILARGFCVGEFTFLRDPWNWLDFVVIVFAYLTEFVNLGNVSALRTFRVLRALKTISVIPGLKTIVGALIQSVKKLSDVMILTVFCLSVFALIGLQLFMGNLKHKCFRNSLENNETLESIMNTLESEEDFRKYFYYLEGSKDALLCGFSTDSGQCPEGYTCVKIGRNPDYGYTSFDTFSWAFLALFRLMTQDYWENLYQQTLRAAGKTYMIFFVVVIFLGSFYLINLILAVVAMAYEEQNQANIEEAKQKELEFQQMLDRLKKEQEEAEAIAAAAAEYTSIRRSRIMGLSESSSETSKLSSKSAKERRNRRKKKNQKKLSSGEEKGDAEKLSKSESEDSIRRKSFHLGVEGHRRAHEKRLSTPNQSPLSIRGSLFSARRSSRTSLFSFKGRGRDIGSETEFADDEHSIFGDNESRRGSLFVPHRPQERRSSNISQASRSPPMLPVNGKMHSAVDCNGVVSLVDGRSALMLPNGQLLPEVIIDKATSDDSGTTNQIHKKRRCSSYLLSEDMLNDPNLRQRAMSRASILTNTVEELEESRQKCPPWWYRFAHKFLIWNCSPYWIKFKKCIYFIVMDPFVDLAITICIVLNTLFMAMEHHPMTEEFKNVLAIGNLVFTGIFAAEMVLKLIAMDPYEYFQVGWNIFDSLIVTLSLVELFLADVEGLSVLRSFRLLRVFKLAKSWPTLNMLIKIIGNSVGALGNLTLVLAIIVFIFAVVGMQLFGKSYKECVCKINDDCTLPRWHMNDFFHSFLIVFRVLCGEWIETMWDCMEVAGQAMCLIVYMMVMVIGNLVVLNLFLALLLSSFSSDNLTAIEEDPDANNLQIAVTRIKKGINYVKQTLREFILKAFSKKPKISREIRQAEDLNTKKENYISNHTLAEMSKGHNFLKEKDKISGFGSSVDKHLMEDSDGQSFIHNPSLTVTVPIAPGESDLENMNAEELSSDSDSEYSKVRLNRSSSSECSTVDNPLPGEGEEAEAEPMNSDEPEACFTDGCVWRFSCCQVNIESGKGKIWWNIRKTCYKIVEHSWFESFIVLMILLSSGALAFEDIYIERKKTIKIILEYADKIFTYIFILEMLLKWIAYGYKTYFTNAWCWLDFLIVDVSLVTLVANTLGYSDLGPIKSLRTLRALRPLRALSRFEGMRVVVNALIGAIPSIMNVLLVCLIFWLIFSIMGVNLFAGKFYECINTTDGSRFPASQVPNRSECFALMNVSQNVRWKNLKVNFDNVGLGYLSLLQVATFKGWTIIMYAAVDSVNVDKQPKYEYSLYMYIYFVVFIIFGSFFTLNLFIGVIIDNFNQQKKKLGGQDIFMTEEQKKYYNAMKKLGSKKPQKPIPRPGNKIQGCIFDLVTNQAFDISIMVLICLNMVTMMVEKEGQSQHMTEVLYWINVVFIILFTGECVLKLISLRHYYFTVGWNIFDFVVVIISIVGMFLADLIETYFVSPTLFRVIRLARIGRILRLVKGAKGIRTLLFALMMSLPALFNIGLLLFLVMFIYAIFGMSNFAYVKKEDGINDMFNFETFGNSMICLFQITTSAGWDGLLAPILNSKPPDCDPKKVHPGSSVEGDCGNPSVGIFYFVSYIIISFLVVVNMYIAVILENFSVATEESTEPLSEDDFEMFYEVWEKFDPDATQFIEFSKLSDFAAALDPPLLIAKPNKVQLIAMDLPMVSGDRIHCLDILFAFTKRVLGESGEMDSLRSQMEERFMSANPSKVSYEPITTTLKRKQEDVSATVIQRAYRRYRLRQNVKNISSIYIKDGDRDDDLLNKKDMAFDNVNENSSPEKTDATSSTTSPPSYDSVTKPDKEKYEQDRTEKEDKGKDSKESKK

SMILES	IC50 (Nav 1.7 [1]) [nM]	IC50 (Nav 1.7 [2]) [nM]	IC50 (Nav 1.5) [nM]
O=S(=O)(Nc1ccon1)c1ccc2c(c1)OCCN2c1ccc(C(F)(F)F)cc1Cl [Example 13, 4-(2-Chloro-4-(Trifluoromethyl)Phenyl)-N-(Isoxazol-3-Yl)-3,4-Dihydro-2H-Benzo[B][1,4]Oxazine-7-Sulfonamide]	1720	5160	> 10000
COc1cc(C#N)ccc1N1CCOc2cc(S(=O)(=O)Nc3nccs3)ccc21 [Example 181, 4-(4-Cyano-2-Methoxyphenyl)-N-(Thiazol-2-Yl)-3,4-Dihydro-2H-Benzo[B][1,4]Oxazine-7-Sulfonamide 2,2,2-Trifluoroacetate]	7.5	175	> 10000
O=S(=O)(Nc1nccs1)c1ccc2c(c1)OCCN2c1cccc(Cl)c1 [Example 41, 4-(3-Chlorophenyl)-N-(Thiazol-2-Yl)-3,4-Dihydro-2H-Benzo[B][1,4]Oxazine-7-Sulfonamide]	111	640	4930
C[C@H]1CN(c2ccc(C(F)(F)F)cc2C#N)c2ccc(S(=O)(=O)Nc3nccs3)cc2O1 (single isomer, unassigned) [Example 94]	8.5	149	724
Cc1ccc(C(C)C)c(N2CCOc3cc(S(=O)(=O)Nc4nccs4)ccc32)c1 [Example 168, 4-(2-Isopropyl-5-Methylphenyl)-N-(Thiazol-2-Yl)-3,4-Dihydro-2H-Benzo[B][1,4]Oxazine-7-Sulfonamide 2,2,2-Trifluoroacetate]	643	3250	> 10000
Cn1nccc1-c1cc(C(F)(F)F)ccc1N1CCOc2cc(S(=O)(=O)Nc3ncns3)ccc21 [Example 3, 4-(2-(1-Methyl-1H-Pyrazol-5-Yl)-4-(Trifluoromethyl)Phenyl)-N-(1,2,4-Thiadiazol-5-Yl)-3,4-Dihydro-2H-Benzo[B][1,4]Oxazine-7-Sulfonamide]	10.8	57.7	1870
Cc1cc(N2CCOc3cc(S(=O)(=O)Nc4nccs4)ccc32)ccc1F [Example 81, 4-(4-Fluoro-3-Methylphenyl)-N-(Thiazol-2-Yl)-3,4-Dihydro-2H-Benzo[B][1,4]Oxazine-7-Sulfonamide 2,2,2-Trifluoroacetate]	288	1650	> 10000
COc1cc(C#N)ccc1N1C[C@@H](C)Oc2cc(S(=O)(=O)Nc3nccs3)ccc21 (single isomer, unassigned) [Example 108]	45.5	303	> 10000
O=S(=O)(Nc1ncns1)c1ccc2c(c1)OCCN2c1ccc(C(F)(F)F)cc1C1=CCOCC1 [Example 25, 4-(2-(3,6-Dihydro-2H-Pyran-4-Yl)-4-(Trifluoromethyl)Phenyl)-N-(1,2,4-Thiadiazol-5-Yl)-3,4-Dihydro-2H-Benzo[B][1,4]Oxazine-7-Sulfonamide]	12.3	146	214
O=S(=O)(Nc1nccs1)c1ccc2c(c1)OCCN2c1ccc(F)c(F)c1 [Example 84, 4-(3,4-Difluorophenyl)-N-(Thiazol-2-Yl)-3,4-Dihydro-2H-Benzo[B][1,4]Oxazine-7-Sulfonamide 2,2,2-Trifluoroacetate]	326	3040	3810
Cc1c(F)cccc1N1CCOc2cc(S(=O)(=O)Nc3nccs3)ccc21 [Example 78, 4-(3-Fluoro-2-Methylphenyl)-N-(Thiazol-2-Yl)-3,4-Dihydro-2H-Benzo[B][1,4]Oxazine-7-Sulfonamide 2,2,2-Trifluoroacetate]	249	2220	> 10000
[N-]=[N+]=Nc1ccc(N2CCOc3cc(S(=O)(=O)Nc4nccs4)ccc32)c(Br)c1 [Example 64, 4-(4-Azido-2-Bromophenyl)-N-(Thiazol-2-Yl)-3,4-Dihydro-2H-Benzo[B][1,4]Oxazine-7-Sulfonamide 2,2,2-Trifluoroacetate]	418	1070	> 10000
O=S(=O)(Nc1nccs1)c1ccc2c(c1)OCCN2c1ccccc1OC(F)F [Example 179, 4-(2-(Difluoromethoxy)Phenyl)-N-(Thiazol-2-Yl)-3,4-Dihydro-2H-Benzo[B][1,4]Oxazine-7-Sulfonamide 2,2,2-Trifluoroacetate]	112	750	5640
Cc1ccc(C#N)c(N2CCOc3cc(S(=O)(=O)Nc4nccs4)ccc32)c1 [Example 194, 4-(2-Cyano-5-Methylphenyl)-N-(Thiazol-2-Yl)-3,4-Dihydro-2H-Benzo[B][1,4]Oxazine-7-Sulfonamide]	163	1370	3590
O=S(=O)(Nc1ncco1)c1ccc2c(c1)OCCN2c1ccc(C(F)(F)F)cc1Cl [Example 24, 4-(2-Chloro-4-(Trifluoromethyl)Phenyl)-N-(Oxazol-2-Yl)-3,4-Dihydro-2H-Benzo[B][1,4]Oxazine-7-Sulfonamide]	834	4270	> 10000
N#Cc1cc(F)ccc1N1CCOc2cc(S(=O)(=O)Nc3nccs3)ccc21 [Example 177, 4-(2-cyano-4-fluorophenyl)-N-(thiazol-2-yl)-3,4-dihydro-2H-benzo[b][1,4]oxazine-7-sulfonamide]	178	1490	> 10000
COc1cncc(N2CCOc3cc(S(=O)(=O)Nc4nccs4)ccc32)c1 [Example 131, 4-(5-Methoxypyridin-3-yl)-N-(thiazol-2-yl)-3,4-dihydro-2H-benzo[b][1,4]oxazine-7-sulfonamide]	1310	23300	> 10000
Cc1ccc(F)c(N2CCOc3cc(S(=O)(=O)Nc4nccs4)ccc32)c1 [Example 80, 4-(2-Fluoro-5-Methylphenyl)-N-(Thiazol-2-Yl)-3,4-Dihydro-2H-Benzo[B][1,4]Oxazine-7-Sulfonamide 2,2,2-Trifluoroacetate]	126	340	5640
CN1CCN(c2ccc(C(F)(F)F)cc2Cl)c2ccc(S(=O)(=O)Nc3ncns3)cc21 [Example 19, 1-(2-Chloro-4-(Trifluoromethyl)Phenyl)-4-Methyl-N-(1,2,4-Thiadiazol-5-Yl)-1,2,3,4-Tetrahydroquinoxaline-6-Sulfonamide]	1180	4890	> 10000
Cc1cc(OC(F)(F)F)ccc1N1CCOc2cc(S(=O)(=O)Nc3nccs3)ccc21 [Example 140, 4-(2-Methyl-4-(trifluoromethoxy)phenyl)-N-(thiazol-2-yl)-3,4-dihydro-2H-benzo[b][1,4]oxazine-7-sulfonamide]	451	1340	6600
COc1cc(Cl)ccc1N1CCOc2cc(S(=O)(=O)Nc3nccs3)ccc21 [Example 186, 4-(4-Chloro-2-Methoxyphenyl)-N-(Thiazol-2-Yl)-3,4-Dihydro-2H-Benzo[B][1,4]Oxazine-7-Sulfonamide]	11.5	67.6	7720
O=S(=O)(Nc1cscn1)c1ccc2c(c1)OCCN2c1ccc(C(F)(F)F)cc1C1=CCNCC1 [Example 63, 4-(2-(1,2,3,6-Tetrahydropyridin-4-Yl)-4-(Trifluoromethyl)Phenyl)-N-(Thiazol-4-Yl)-3,4-Dihydro-2H-Benzo[B][1,4]Oxazine-7-Sulfonamide]	27	144	2670

From patent US9346798B2, “Dihydrobenzoxazine and tetrahydroquinoxaline sodium channel inhibitors” (AMGEN INC., priority 2012, dated 2016)
